Reference: paper PMC9029695, “5-Aryl-1,3,4-oxadiazol-2-amines Decorated with Long Alkyl and Their Analogues: Synthesis, Acetyl- and Butyrylcholinesterase Inhibition and Docking Study” (Pharmaceuticals, 2022)

Legend:
[1] = target: T1, BChE from equine serum (EqBChE) (Equus caballus, UniProt P81908); assay: Inhibition of BChE, modified Ellman's spectrophotometric method; assay type: biochemical; settings: for IC50: EqBChE, Ellman's method, mean ± SD, n = three independent experiments
T1 construct: butyrylcholinesterase originated from equine serum (EqBChE); purchased Merck (Prague, Czech Republic); host or cells: equine serum
T1 sequence (P81908 whole entry): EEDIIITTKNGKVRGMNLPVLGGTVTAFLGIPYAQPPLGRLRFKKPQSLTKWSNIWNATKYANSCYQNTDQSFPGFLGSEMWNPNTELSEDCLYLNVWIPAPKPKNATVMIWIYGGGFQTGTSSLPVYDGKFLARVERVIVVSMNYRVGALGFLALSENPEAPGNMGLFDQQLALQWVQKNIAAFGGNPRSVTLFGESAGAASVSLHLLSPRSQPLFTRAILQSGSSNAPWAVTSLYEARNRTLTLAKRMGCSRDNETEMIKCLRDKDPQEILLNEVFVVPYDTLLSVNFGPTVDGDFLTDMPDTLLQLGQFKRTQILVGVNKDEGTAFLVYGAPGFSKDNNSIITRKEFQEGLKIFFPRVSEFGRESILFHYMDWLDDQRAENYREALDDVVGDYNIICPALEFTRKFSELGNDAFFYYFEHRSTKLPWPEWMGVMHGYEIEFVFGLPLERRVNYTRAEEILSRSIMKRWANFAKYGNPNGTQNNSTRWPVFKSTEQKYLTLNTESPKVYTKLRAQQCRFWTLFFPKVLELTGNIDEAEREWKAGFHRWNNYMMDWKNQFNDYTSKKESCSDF
Text: (§1) The heterocycles 3 were screened for their ability to interfere with the function of AChE from electric eel (EeAChE) and BChE from equine serum (EqBChE) using Ellman’s method (Table 1). Their activities are expressed as the concentration producing 50% inhibition of enzymatic activity (IC50). In addition, we calculated selectivity indexes (SI) that quantify the selectivity for AChE as more inhibited cholinesterase. SI is the ratio of IC50 for BChE/IC50 for AChE.
(§2) Enzyme inhibition activity of 3 quantified as IC50 values was determined spectrophotometrically using modified Ellman’s method. […] The enzyme activity is measured indirectly by determination of 5-mercapto-2-nitrobenzoic acid ion formed after reaction of the thiol reagent 5,5′-disulfanediyl-bis(2-nitrobenzoic acid) (DTNB) and thiocholine, a product of acetylthiocholine (ATCh) and butyrylthiocholine (BTCh) as substrates for hydrolysis by AChE and BChE, respectively.
(§3) The enzyme activity in final reaction mixture (2000 µL) was 0.2 U/mL, concentration of ATCh (or BTCh) 40 µM and concentration of DTNB 100 µM for all reactions. The compounds 3 were dissolved in DMSO and then diluted in demineralized water (conductivity 3 μS, equipment supplier BKG Water Treatment, Hradec Králové, Czech Republic) to the concentration of 1000 µM. […] The final concentration of DMSO was 0.2%. All experiments were carried in triplicates. The average values of reaction rate (v0-uninhibited reaction, vi-inhibited reaction) were used for construction of the dependence v0/vi vs. concentration of inhibitor. From obtained equation of regression curve, IC50 values were calculated.
(§4) Acetylcholinesterase was used from electric eel (Electrophorus electricus L.; EeAChE) and butyrylcholinesterase originated from equine serum (EqBChE).

[2] = target: T2, AChE from electric eel (EeAChE) (Electrophorus electricus, UniProt O42275); assay: Inhibition of AChE, modified Ellman's spectrophotometric method; assay type: biochemical, electric eel (Electrophorus electricus L.); settings: for IC50: EeAChE, Ellman's method, mean ± SD, n = three independent experiments
T2 construct: purchased Merck (Prague, Czech Republic)
T2 sequence (O42275 24-633): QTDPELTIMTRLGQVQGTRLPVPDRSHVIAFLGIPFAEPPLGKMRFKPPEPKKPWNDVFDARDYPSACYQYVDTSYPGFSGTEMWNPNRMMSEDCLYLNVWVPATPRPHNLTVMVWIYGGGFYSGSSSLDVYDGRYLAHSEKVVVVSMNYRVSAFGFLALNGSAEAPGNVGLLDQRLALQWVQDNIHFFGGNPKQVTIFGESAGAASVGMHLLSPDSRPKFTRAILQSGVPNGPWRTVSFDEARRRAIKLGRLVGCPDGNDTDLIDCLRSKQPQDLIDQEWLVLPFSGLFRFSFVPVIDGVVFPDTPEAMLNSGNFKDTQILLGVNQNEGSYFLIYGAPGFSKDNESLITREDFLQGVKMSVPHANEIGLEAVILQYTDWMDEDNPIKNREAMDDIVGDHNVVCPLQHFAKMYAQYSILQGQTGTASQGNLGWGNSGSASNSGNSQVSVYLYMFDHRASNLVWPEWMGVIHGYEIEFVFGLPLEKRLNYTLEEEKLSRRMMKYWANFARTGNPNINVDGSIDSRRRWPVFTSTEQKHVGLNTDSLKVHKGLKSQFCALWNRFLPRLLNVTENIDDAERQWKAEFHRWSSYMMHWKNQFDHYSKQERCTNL
Text: as §1, §2, §3, §4

[3] = target: T3, AChE (Electrophorus electricus, UniProt O42275); assay: Type of AChE inhibition (Lineweaver–Burk plot); assay type: biochemical, electric eel (Electrophorus electricus L.); settings: ATCh 20–80 µM, inhibitor 10, 25, 35 and 50 µM
T3 construct: purchased Merck (Prague, Czech Republic)
T3 sequence (O42275 24-633): as above
Text: We also valuated the type of inhibition of 3t using AChE. In general, the reversible inhibitors can be classified as competitive, non-competitive, uncompetitive, or mixed type. The type of inhibition could be distinguished using the Lineweaver–Burk plot and the corresponding comparison of two key kinetic parameters: maximum velocity (Vm) and Michaelis constant (KM) of the inhibited and uninhibited reactions. Based on the changes of these parameters and intercept of the lines in Lineweaver–Burk plot, the type of inhibition is uncovered.
The inhibition is associated with a change in both KM and Vm and also their ratio is different compared to the uninhibited reaction. In the Lineweaver–Burk plot, the intersection of the lines is in quadrant III but not on axis.
The procedure was analogous to the determination of IC50. The enzyme activity in the final reaction mixture (2000 µL) was 0.2 U/mL, concentration of ATCh 20–80 µM and concentration of DTNB was 100 µM. For each of the substrate concentrations, four different concentrations of the inhibitor were used (10, 25, 35 and 50 µM). The dependence of absorbance vs. time was observed and the reaction rate was calculated. […] From obtained equations of regression curves in Lineweaver–Burk plot, the values of Michaelis constant (KM) and maximum velocity (Vm) were calculated. […]

[4] = target: T3, AChE; assay: Reversibility of AChE inhibition (residual enzyme activity over time); assay type: biochemical, electric eel (Electrophorus electricus L.)
Text: Based on the promising in vitro inhibition of AChE by thiadiazole 3t, we investigated the derivative to distinguish between reversible, pseudo-irreversible and irreversible inhibition on the basis of changes in enzyme activity over time in the presence of the inhibitor. In reversible inhibition, the activity of enzyme goes down immediately, but the inhibitory molecule is bound to the target for a short period of time, after which the inhibitor-enzyme complex dissociates, and enzyme activity is restored. In pseudo-irreversible inhibition, the inhibitor binds covalently to the enzyme, but the bond is broken down more slowly, delaying the return of enzyme activity to its initial state. In the case of irreversible inhibitors, the reaction between the enzyme and the inhibitor is not rapid because there is a time-dependent drop of activity. Irreversible inhibitors decrease enzyme activity gradually. […]
Three different inhibitor concentrations (1, 10, and 100 µM) were chosen. […] At given times (5, 10, 15, 20, 30, 40, 50, 60, 260, and 1450 min), DTNB and ATCh were added to the sample taken from the reaction mixture, mixed rapidly, and the absorbance was measured to quantify the enzyme activity. Based on knowledge of the enzyme activity in the absence of the inhibitor (i.e., 100% activity), the percentages of residual enzyme activity in presence of inhibitor were calculated. […]

| Compound | IC50 [1] | IC50 [2] | BChE/AChE Ratio (selectivity index, IC50 for BChE/IC50 for AChE) [2] | fold lower AChE inhibition, oxadiazole vs. thiadiazole 3t ([2]; 3t vs. 3l) | type of inhibition [3] | fold boost of BChE inhibitory potency, switch of oxygen to sulfur ([1]; 3l vs. 3t) | reversibility of AChE inhibition ([4]; 1, 10 and 100 µM, residual activity followed 5–1450 min) | time at which almost maximum inhibition is reached ([4]; two lower concentrations (1 and 10 µM)) | fold higher in vitro activity (IC50) against AChE than rivastigmine ([2]; compared with rivastigmine) |
| --- | --- | --- | --- | --- | --- | --- | --- | --- | --- |
| CCCCCCCCCCCCNc1nnc(-c2ccc(C(C)(C)C)cc2)o1 [3d, 5-[4-(tert-Butyl)phenyl]-N-dodecyl-1,3,4-oxadiazol-2-amine] | 152 ± 6.02 µM | 65.2 ± 0.72 µM | 2.3 |  |  |  |  |  |  |
| CCCCCCCCCCCCNc1nnc(-c2cccnc2)o1 [3m, N-Dodecyl-5-(pyridin-3-yl)-1,3,4-oxadiazol-2-amine] | 369 ± 3.83 µM | 64.2 ± 0.93 µM | 5.8 |  |  |  |  |  |  |
| CCCCCCCCCCCCNc1nnc(-c2ccc(Br)cc2)o1 [3i, 5-(4-Bromophenyl)-N-dodecyl-1,3,4-oxadiazol-2-amine] | 369 ± 5.82 µM | 40 ± 0.98 µM | 9.2 |  |  |  |  |  |  |
| CCCCCCCCCCCCNc1nnc(-c2ccc(I)cc2)o1 [3j, N-Dodecyl-5-(4-iodophenyl)-1,3,4-oxadiazol-2-amine] | 482 ± 6.15 µM | 37.8 ± 1.83 µM | 12.7 |  |  |  |  |  |  |
| CCCCCCCCCCCCNc1nnc(-c2ccccc2)o1 [3a, N-Dodecyl-5-phenyl-1,3,4-oxadiazol-2-amine] | 149 ± 1.69 µM | 40.1 ± 0.54 µM | 3.7 |  |  |  |  |  |  |
| CCCCCCCCCCCCNc1nnc(-c2ccc([N+](=O)[O-])cc2)o1 [3e, N-Dodecyl-5-(4-nitrophenyl)-1,3,4-oxadiazol-2-amine] | 105.2 ± 0.94 µM | 70.46 ± 0.59 µM | 1.5 |  |  |  |  |  |  |
| CCCCCCCCCCCCc1nnc(-c2ccncc2)o1 [3u, 2-Dodecyl-5-(pyridin-4-yl)-1,3,4-oxadiazole] | 289 ± 1.55 µM | 99.2 ± 3.26 µM | 2.9 |  |  |  |  |  |  |
| CCCCCCCCCCCCNc1nnc(-c2ccc(OC)cc2)o1 [3c, N-Dodecyl-5-(4-methoxyphenyl)-1,3,4-oxadiazol-2-amine] | 225 ± 11 µM | 33.86 ± 0.27 µM | 6.6 |  |  |  |  |  |  |
| CCCCCCCCCCCCNc1nnc(-c2ccncc2)o1 [3l, N-Dodecyl-5-(pyridin-4-yl)-1,3,4-oxadiazol-2-amine] | 223 ± 1.54 µM | 50.2 ± 0.79 µM | 4.4 | 3.9 × |  |  |  |  |  |
| CCCCCCCCCCCCNc1nnc(-c2ccnc(Br)c2)o1 [3q, 5-(2-Bromopyridin-4-yl)-N-dodecyl-1,3,4-oxadiazol-2-amine] | 224.2 ± 1.29 µM | 73.4 ± 2.06 µM | 3.1 |  |  |  |  |  |  |
| CCCCCCCCCCCCNc1nnc(-c2cc([N+](=O)[O-])cc([N+](=O)[O-])c2)o1 [3k, 5-(3,5-Dinitrophenyl)-N-dodecyl-1,3,4-oxadiazol-2-amine] | 384 ± 5.34 µM | 40.98 ± 0.11 µM | 9.4 |  |  |  |  |  |  |
| CCCCCCCCCCCCNc1nnc(-c2ccccn2)o1 [3n, N-Dodecyl-5-(pyridin-2-yl)-1,3,4-oxadiazol-2-amine] | 315.4 ± 1.96 µM | 60.5 ± 2.42 µM | 5.2 |  |  |  |  |  |  |
| CCCCCCCCCCCCNc1nnc(-c2ccc(F)cc2)o1 [3g, N-Dodecyl-5-(4-fluorophenyl)-1,3,4-oxadiazol-2-amine] | 266.7 ± 2.59 µM | 36.7 ± 1.59 µM | 7.3 |  |  |  |  |  |  |
| CCCCCCCCCCCCNc1nnc(-c2ccncc2)s1 [3t, N-Dodecyl-5-(pyridin-4-yl)-1,3,4-thiadiazol-2-amine] | 53.1 ± 3.68 µM | 12.78 ± 0.03 µM | 4.2 |  | mixed type of inhibition | 4.2 × | reversible AChE inhibitor | 5 min | 4.4 × |
| CCCCCCCCCCCCSc1nnc(-c2ccncc2)o1 [3s, 2-(Dodecylthio)-5-(pyridin-4-yl)-1,3,4-oxadiazole] | > 500 µM | 91.6 ± 7.14 µM | >5.5 |  |  |  |  |  |  |
| CCCCCCCCCCCCNc1nnc(-c2ccncn2)o1 [3o, N-Dodecyl-5-(pyrimidin-4-yl)-1,3,4-oxadiazol-2-amine] | 298.3 ± 2.19 µM | 45.5 µM | 6.6 |  |  |  |  |  |  |
| CCCCCCCCCCCCNc1nnc(-c2ccc(N(C)C)cc2)o1 [3f, 5-[4-(Dimethylamino)phenyl]-N-dodecyl-1,3,4-oxadiazol-2-amine] | 316 ± 6.22 µM | 87.99 ± 0.81 µM | 3.6 |  |  |  |  |  |  |
| CCCCCCCCCCCCNc1nnc(-c2cnccn2)o1 [3p, N-Dodecyl-5-(pyrazin-2-yl)-1,3,4-oxadiazol-2-amine] | 452 ± 59.3 µM | 92.1 ± 6.11 µM | 4.9 |  |  |  |  |  |  |
| CCCCCCCCCCCCNc1nnc(-c2ccc(C)cc2)o1 [3b, N-Dodecyl-5-(p-tolyl)-1,3,4-oxadiazol-2-amine] | 90 ± 2.35 µM | 34.6 ± 0.96 µM | 2.6 |  |  |  |  |  |  |
| CCCCCCCCCCCCNc1nnc(-c2ccc(Cl)cc2)o1 [3h, 5-(4-Chlorophenyl)-N-dodecyl-1,3,4-oxadiazol-2-amine] | 444 ± 8.5 µM | 50.2 ± 1.88 µM | 8.8 |  |  |  |  |  |  |
| CCCCCCCCCCCCNc1nnc(-c2ccnnc2)o1 [3r, N-Dodecyl-5-(pyridazin-4-yl)-1,3,4-oxadiazol-2-amine] | 238 ± 13.8 µM | 81.5 ± 4.14 µM | 2.9 |  |  |  |  |  |  |
